Experimental data reported in patent US20240360151A1 (SANOFI, priority 2023, published 2024).
Structures can show the parent of a compound that is named as a salt.

What follows are compounds tested against T1, NLRP3 inflammasome (Homo sapiens, UniProt Q96P20) (assay: IL-1β secretion assay (NLRP3 IC50) in LPS-primed, nigericin-activated THP-1 cells, HTRF). Conditions: monocytic THP-1 cells; LPS 10 ng/mL 3 h priming, then compound + nigericin 10 μM 2 h; relative IC50, 10 concentrations, geometric mean.
T1 construct: endogenous in cells; host or cells: THP-1 monocytic cells
Type: cell-based
Method: Monocytic THP-1 cells were maintained in RPMI 1640 media (Gibco 21875)+10% FBS, (Gibco 10500)+1% penicillin/streptomycin (Gibco 15140-122). Cells were then plated at 40,000 cells per well in 384-well cell culture plates (CoRNning 3542) and maintained with RPMI1640 (Gibco 11835)+5% FBS (Gibco 10500). Activation of the NLRP3 inflammasome requires both an NF-kB-dependent priming step and the addition of a NLRP3 activator. The priming step was induced by LPS (10 ng/mL, InvivoGen ref tlrl-3pelps) for 3 h at 37° C., then compound, in a 1:3 serial dilution series in DMSO (final concentration DMSO 0.1%), and the activator nigericin (Sigma Aldrich, ref: SML1779) 10 μM (final concentration) were added to the cells and co-incubated for 2 hours. 16 μL supernatant was removed, and IL-1β levels were monitored using an HTRF assay (Human IL1b Kits HTRF Cisbio ref: 62HILBPEH) according to manufacturers' instructions.
Data were expressed as percentage of inhibition (I %) as compared to a maximum signal control containing no small molecule (I %=0%) according to the formula: 1%=(1−((Sample−Min))/((Max−Min)))×100, where: • Sample: Signal obtained in the presence of each compound tested, • Max: Maximum signal in the absence of compound added, • Min: Minimum or background signal obtained in the absence of activation signal.
Relative IC50 (IC50 rel) were obtained from a dose response curve with 10 concentrations. Final IC50 rels are expressed as the geometric mean.
Relative IC50 values were estimated with Biost@t-SPEED v2.4 internal software based on SAS system using the 4-parameter logistic model according to Ratkovsky and Reedy (D. A. Ratkovsky, T. J. Reedy, Choosing near-linear parameters in the four parameters logistic model radioligands and related assays. Biometrics, 42 (1986), 575-582): Y=A+C/((1+exp(−B*(log(X)−M)))), where: • A: Lower asymptote (BOTTOM), • A+C: Upper asymptote (TOP), • M: the logarithm of the concentration estimated at the inflexion point (the logarithm of the relative IC50), • B: Slope at the inflexion point of the curve.

T1 sequence (Q96P20 whole entry): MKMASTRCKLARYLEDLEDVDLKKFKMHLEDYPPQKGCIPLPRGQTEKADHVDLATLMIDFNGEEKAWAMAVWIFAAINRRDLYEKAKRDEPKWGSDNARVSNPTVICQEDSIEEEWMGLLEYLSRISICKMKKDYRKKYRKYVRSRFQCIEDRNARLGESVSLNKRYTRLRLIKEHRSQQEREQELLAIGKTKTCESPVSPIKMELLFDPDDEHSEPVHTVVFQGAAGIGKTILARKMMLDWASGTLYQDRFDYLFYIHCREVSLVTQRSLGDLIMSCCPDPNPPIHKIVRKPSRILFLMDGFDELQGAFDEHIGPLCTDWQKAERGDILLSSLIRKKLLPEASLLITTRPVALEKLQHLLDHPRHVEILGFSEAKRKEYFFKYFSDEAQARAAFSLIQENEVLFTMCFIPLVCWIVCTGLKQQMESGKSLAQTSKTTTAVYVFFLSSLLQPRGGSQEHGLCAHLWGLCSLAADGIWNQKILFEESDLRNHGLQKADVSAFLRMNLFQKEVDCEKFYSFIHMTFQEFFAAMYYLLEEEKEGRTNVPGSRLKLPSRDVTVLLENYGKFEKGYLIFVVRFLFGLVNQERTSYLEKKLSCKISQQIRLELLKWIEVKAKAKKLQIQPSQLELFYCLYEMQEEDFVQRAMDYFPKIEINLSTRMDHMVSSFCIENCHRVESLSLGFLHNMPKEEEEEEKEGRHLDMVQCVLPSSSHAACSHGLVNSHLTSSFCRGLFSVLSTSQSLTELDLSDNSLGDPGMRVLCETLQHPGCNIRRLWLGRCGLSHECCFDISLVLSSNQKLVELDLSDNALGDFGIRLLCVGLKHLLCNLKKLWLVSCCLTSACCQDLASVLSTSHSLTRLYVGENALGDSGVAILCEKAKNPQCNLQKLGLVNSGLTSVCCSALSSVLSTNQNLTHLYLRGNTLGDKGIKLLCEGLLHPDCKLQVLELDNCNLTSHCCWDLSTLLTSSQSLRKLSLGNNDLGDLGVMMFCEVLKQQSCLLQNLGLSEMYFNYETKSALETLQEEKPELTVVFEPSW

| SMILES | IC50 [nM] |
| --- | --- |
| Cc1cc(C)c(-c2ccc(N3CCO[C@@H]4COCC[C@@H]43)nn2)c(O)c1 (racemic) [Example 111, 2-[6-[rac-(4aS,8aS)-3,4a,5,7,8,8a-hexahydro-2H-pyrano[3,4-b][1,4]oxazin-1-yl]pyridazin-3-yl]-3,5-dimethyl-phenol] | 496 |
| Cc1cc(C)c(-c2ccc(N3CCO[C@@H]4CNC[C@H]43)nn2)c(O)c1 (racemic) [Example 190, 2-[6-[rac-(4aR,7aR)-3,4a,5,6,7,7a-hexahydro-2H-pyrrolo[3,4-b][1,4]oxazin-4-yl]pyridazin-3-yl]-3,5-dimethylphenol] | 1150 |
| CC(=O)N1C[C@@H]2OCCN(c3ccc(-c4c(C)cc(C)cc4O)nn3)[C@H]2C1 (racemic) [Example 257, 1-[rac-(4aS,7aS)-4-[6-(2-hydroxy-4,6-dimethylphenyl)pyridazin-3-yl]-2,3,4a,5,7,7a-hexahydropyrrolo[3,4-b][1,4]oxazin-6-yl]ethanone] | 7490 |
| Cc1cc(C(F)(F)F)cc(O)c1-c1ccc(N2CCO[C@@H]3CN(C)C[C@H]32)nn1 (racemic) [Example 289, 3-methyl-2-[6-[rac-(4aR,7aR)-6-methyl-2,3,4a,5,7,7a-hexahydropyrrolo[3,4-b][1,4]oxazin-4-yl]pyridazin-3-yl]-5-(trifluoromethyl)phenol] | 140 |
| Cc1cc(C)c(-c2ccc(N3CCC[C@@H]4CCN(C)C(=O)[C@@H]43)nn2)c(O)c1 (racemic) [Example 290, rac-(4aR,8aR)-1-[6-(2-hydroxy-4,6-dimethyl-phenyl)pyridazin-3-yl]-7-methyl-3,4,4a,5,6,8a-hexahydro-2H-1,7-naphthyridin-8-one] | 145 |
| Cc1cc(C)c(-c2ccc(N3CCC[C@@H]4CCNC(=O)[C@@H]43)nn2)c(O)c1 (racemic) [Example 300, rac-(4aR,8aR)-1-[6-(2-hydroxy-4,6-dimethyl-phenyl)pyridazin-3-yl]-2,3,4,4a,5,6,7,8a-octahydro-1,7-naphthyridin-8-one] | 177 |
| Cc1cc(C(F)(F)F)cc(O)c1-c1ccc(N2CCO[C@@H]3CNC[C@H]32)nn1 (racemic) [Example 318, 3-methyl-2-[6-[rac-(4aR,7aR)-3,4a,5,6,7,7a-hexahydro-2H-pyrrolo[3,4-b][1,4]oxazin-4-yl]pyridazin-3-yl]-5-(trifluoromethyl)phenol; hydrochloride] | 883 |
| Cc1cc(C(F)(F)F)cc(O)c1-c1ccc(N2CCO[C@H]3CNC[C@H]32)nn1 (racemic) [Example 320, 3-methyl-2-[6-[rac-(4aR,7aS)-3,4a,5,6,7,7a-hexahydro-2H-pyrrolo[3,4-b][1,4]oxazin-4-yl]pyridazin-3-yl]-5-(trifluoromethyl)phenol] | 116 |
| CC(=O)N1C[C@@H]2OCCN(c3ccc(-c4c(C)cc(C(F)(F)F)cc4O)nn3)[C@@H]2C1 (racemic) [Example 335, 1-[rac-(4aR,7aS)-4-[6-[2-hydroxy-6-methyl-4-(trifluoromethyl)phenyl]pyridazin-3-yl]-2,3,4a,5,7,7a-hexahydropyrrolo[3,4-b][1,4]oxazin-6-yl]ethanone] | 481 |
| CC(=O)N1C[C@@H]2[C@@H](C1)OCCN2c1ccc(-c2c(C)cc(C(F)(F)F)cc2O)nn1 (racemic) [Example 337, 1-[rac-(4aR,7aR)-4-[6-[2-hydroxy-6-methyl-4-(trifluoromethyl)phenyl]pyridazin-3-yl]-2,3,4a,5,7,7a-hexahydropyrrolo[3,4-b][1,4]oxazin-6-yl]ethanone] | 2880 |
| Cc1cc(C(F)(F)F)cc(O)c1-c1ccc(N2CC[C@@H]3NCC[C@@H]32)nn1 (racemic) [Example 346, 3-methyl-2-[6-[rac-(3aS,6aS)-2,3,3a,5,6,6a-hexahydro-1H-pyrrolo[3,2-b]pyrrol-4-yl]pyridazin-3-yl]-5-(trifluoromethyl)phenol;hydrochloride] | 212 |
| Cc1cc(C(F)(F)F)cc(O)c1-c1ccc(N2CC[C@@H]3CCN(C)C[C@H]32)nn1 (racemic) [Example 364, 2-[6-[rac-(3aS,7aS)-6-methyl-3,3a,4,5,7,7a-hexahydro-2H-pyrrolo[2,3-c]pyridin-1-yl]pyridazin-3-yl]-3-methyl-5-(trifluoromethyl)phenol] | 858 |
| CCN1CC2OCCN(c3ccc(-c4c(C)cc(C(F)(F)F)cc4O)nn3)C2C1 (racemic) [Example 376, 3-methyl-2-[6-[rac-(4aR,7aR)-6-ethyl-2,3,4a,5,7,7a-hexahydropyrrolo[3,4-b][1,4]oxazin-4-yl]pyridazin-3-yl]-5-(trifluoromethyl)phenol] | 180 |
| CC(=O)N1CC[C@H]2[C@@H]1CCN2c1ccc(-c2c(C)cc(C(F)(F)F)cc2O)nn1 (racemic) [Example 377, 1-[rac-(3aS,6aS)-1-[6-[2-hydroxy-6-methyl-4-(trifluoromethyl)phenyl]pyridazin-3-yl]-2,3,3a,5,6,6a-hexahydropyrrolo[3,2-b]pyrrol-4-yl]ethanone] | 296 |
| CC(=O)N1CC[C@H]2CCN(c3ccc(-c4c(C)cc(C)cc4O)nn3)[C@H]2C1 (racemic) [Example 394, 1-[rac-(3aR,7aR)-1-[6-(2-hydroxy-4,6-dimethyl-phenyl)pyridazin-3-yl]-3,3a,4,5,7,7a-hexahydro-2H-pyrrolo[2,3-c]pyridin-6-yl]ethanone] | 310 |

Second part, the compound after the results:

| IC50 [nM] | SMILES |
| --- | --- |
| 366 | Cc1cc(C)c(-c2ccc(N3CCO[C@@H]4CCOC[C@@H]43)nn2)c(O)c1 (racemic) [Example 403, 3,5-dimethyl-2-[6-[rac-(4aS,8aR)-3,4a,5,7,8,8a-hexahydro-2H-pyrano[4,3-b][1,4]oxazin-4-yl]pyridazin-3-yl]phenol] |
| 1230 | Cc1cc(C)c(-c2ccc(N3CCOC4CCOCC43)nn2)c(O)c1 (racemic) [Example 421, 3,5-dimethyl-2-[6-[rac-(4aS,8aS)-3,4a,5,7,8,8a-hexahydro-2H-pyrano[4,3-b][1,4]oxazin-4-yl]pyridazin-3-yl]phenol] |
| 411 | Cc1cc(C(F)(F)F)cc(O)c1-c1ccc(N2CCO[C@@H]3CCOC[C@@H]32)nn1 (racemic) [Example 438, 3-methyl-2-[6-[rac-(4aS,8aR)-3,4a,5,7,8,8a-hexahydro-2H-pyrano[4,3-b][1,4]oxazin-4-yl]pyridazin-3-yl]-5-(trifluoromethyl)phenol] |
| 370 | Cc1cc(C(F)(F)F)cc(O)c1-c1ccc(N2CCO[C@H]3CCOC[C@@H]32)nn1 (racemic) [Example 448, 3-methyl-2-[6-[rac-(4aS,8aS)-3,4a,5,7,8,8a-hexahydro-2H-pyrano[4,3-b][1,4]oxazin-4-yl]pyridazin-3-yl]-5-(trifluoromethyl)phenol] |
| 5 | CCc1cc(C(F)(F)F)cc(O)c1-c1ccc(N2CC[C@@H]3CCN(C)C[C@@H]32)nn1 (racemic) [Example 452, 2-[6-[rac-(3aS,7aR)-6-methyl-3,3a,4,5,7,7a-hexahydro-2H-pyrrolo[2,3-c]pyridin-1-yl]pyridazin-3-yl]-3-ethyl-5-(trifluoromethyl)phenol] |
| 2 | CCN1CC[C@H]2CCN(c3ccc(-c4c(O)cccc4C(F)(F)F)nn3)[C@H]2C1 (racemic) [Example 458, 2-[6-[rac-(3aS,7aR)-6-ethyl-3,3a,4,5,7,7a-hexahydro-2H-pyrrolo[2,3-c]pyridin-1-yl]pyridazin-3-yl]-3-(trifluoromethyl)phenol] |
| 1 | CCc1cc(C)cc(O)c1-c1ccc(N2CC[C@@H]3CCN(C)C[C@@H]32)nn1 (racemic) [Example 459, 3-ethyl-5-methyl-2-[6-[rac-(3aS,7aR)-6-methyl-3,3a,4,5,7,7a-hexahydro-2H-pyrrolo[2,3-c]pyridin-1-yl]pyridazin-3-yl]phenol] |
| < 0.3 | CCN1CC[C@H]2CCN(c3cc(C)c(-c4ccc(C)cc4O)nn3)[C@H]2C1 (racemic) [Example 460, 2-[6-[rac-(3aS,7aR)-6-ethyl-3,3a,4,5,7,7a-hexahydro-2H-pyrrolo[2,3-c]pyridin-1-yl]-4-methyl-pyridazin-3-yl]-5-methyl-phenol] |
| 25 | Cc1cc(C(F)(F)F)cc(O)c1-c1ccc(N2CC[C@H]3[C@@H]2CCN3C)nn1 (racemic) [Example 484, 3-methyl-2-[6-[rac-(3aS,6aS)-1-methyl-2,3,3a,5,6,6a-hexahydropyrrolo[3,2-b]pyrrol-4-yl]pyridazin-3-yl]-5-(trifluoromethyl)phenol] |
| 4.9 | Cc1ccc(-c2nnc(N3CC[C@@H]4CCN(C(C)C)C[C@@H]43)cc2C)c(O)c1 (racemic) [Example 528, 5-methyl-2-[4-methyl-6-[rac-(3aS,7aR)-6-isopropyl-3,3a,4,5,7,7a-hexahydro-2H-pyrrolo[2,3-c]pyridin-1-yl]pyridazin-3-yl]phenol] |
